Results from ChEMBL document CHEMBL3046335, “Prediction of anti-HIV activity of imidoyl thioureas: QSAR approach” (Med Chem Res, 2009).

Columns and labels:
[1] = test system: Human immunodeficiency virus 1; experiment: microbe, parasite or virus in culture; details: Human immunodeficiency virus 1, read-out: pIC50 (converted)
Description: Antiviral activity against wild type Human immunodeficiency virus 1

physchem = details: octanol/water
Description: Octanol-water partition coefficient, log P of the compound

| IC50 [1] [nM] | logP (physchem) | Structure (SMILES) |
| --- | --- | --- |
| 380 | 2.67 | N#Cc1ccc(NC(=S)NC(=N)Cc2ccccc2)cc1 |
| 676 | 6.11 | N#Cc1ccc(NC(=S)NC(=N)C2(c3c(Cl)cccc3Cl)CC2)cc1 |
| 43.7 | 5.46 | N#Cc1ccc(NC(=S)NC(=N)c2c(Cl)cccc2Cl)cc1 |
| 757 | 7.06 | CN(C)C(Cc1c(Cl)cccc1Cl)NC(=N)Nc1ccc(C#N)cc1 (stereo not drawn) |
| 15 | 3.71 | N#Cc1ccc(NC(=O)NC(=N)Cc2c(Cl)cccc2Cl)cc1 |
|  | 5.64 | CN(C)C(Cc1c(Cl)cccc1Cl)/N=C(\S)Nc1ccc(C#N)cc1 (stereo not drawn) |
| 67.9 | 3.19 | N#Cc1ccc(NC(=S)NC(=N)Cc2cccc(Cl)c2)cc1 |
| 148 | 3.19 | N#Cc1ccc(NC(=S)NC(=N)Cc2ccc(Cl)cc2)cc1 |
| 126 | 3.7 | N#Cc1cccc(NC(=S)NC(=N)Cc2c(Cl)cccc2Cl)c1 |
| 347 | 4.7 | N=C(Cc1c(Cl)cccc1Cl)NC(=S)Nc1ccc(Cl)cc1Cl |
| 195 | 5.77 | CCN/C(Cc1c(Cl)cccc1Cl)=N\C(S)=N\c1ccc(C#N)cc1 |
| 77.4 | 6.75 | CN/C(Cc1c(Cl)cccc1Cl)=N\C(S)=N\c1ccc(C#N)cc1 |
| 30 | 2.42 | COc1ccccc1CC(=N)/N=C(\S)Nc1ccc(C#N)cc1 |
| 26 | 3.13 | Cc1ccccc1CC(=N)/N=C(\S)Nc1ccc(C#N)cc1 |
| 14 | 3.19 | N#Cc1ccc(NC(=S)NC(=N)Cc2ccccc2Cl)cc1 |
| 13 | 4.19 | N=C(Cc1c(Cl)cccc1Cl)NC(=S)Nc1ccc(Cl)cc1 |
| 525 | 5.79 | N#Cc1ccc(NC(=S)NC(=N)CCc2c(Cl)cccc2Cl)cc1 |
| 617 | 6.22 | N=C(Cc1c(Cl)cccc1Cl)NC(=S)NCCc1ccc(Cl)cc1 |
| 6 | 2.95 | N#Cc1ccc(N/C(S)=N/C(=N)Cc2c(F)cccc2F)cc1 |
| 126 | 4.83 | N#Cc1ccc(NC(=S)NC(=N)Cc2c(Cl)cccc2Cl)cc1 |
| 5 | 4.22 | N#Cc1ccc(NC(=S)NC(=N)Cc2c(Cl)ccc(Cl)c2Cl)cc1 |
| 158 | 5.98 | N#C/N=C(\NCCc1ccc(C#N)cc1)N/C(Cc1c(Cl)cccc1Cl)=N\c1ccccc1 |
| 158 | 5.95 | CC(C(=N)/N=C(\S)Nc1ccc(C#N)cc1)c1c(Cl)cccc1Cl (stereo not drawn) |
| 692 | 5.97 | N=C(Cc1c(Cl)cccc1Cl)NC(=S)NCc1ccc(Cl)cc1 |
| 214 | 5.96 | C/N=C(/Cc1c(Cl)cccc1Cl)NC(=O)Nc1ccc(C#N)cc1 |
| 123 | 3.67 | N=C(Cc1c(Cl)cccc1Cl)NC(=S)Nc1ccccc1 |
| 7 | 3.7 | N#Cc1ccc(NC(=S)NC(=N)Cc2ccc(Cl)cc2Cl)cc1 |
